The values below come from ChEMBL document CHEMBL3875166, “Synthesis and biological evaluation of new 6-hydroxypyridazinone benzisoxazoles: Potential multi-receptor-targeting atypical antipsychotics” (Eur J Med Chem, 2016).

Series [1] has as its target Histamine H1 receptor (Cavia porcellus, UniProt P31389). Briefly: Displacement of [3H]mepyramine from histamine H1 receptor in guinea pig cerebellum incubated for 60 mins by liquid scintillation counting analysis. In general terms: In a radioligand displacement assay an active substance lowers the binding of a labelled ligand.
The target of series [2] is D(2) dopamine receptor (Rattus norvegicus, UniProt P61169). The experiment in a line: Displacement of [3H]spiperone from dopamine D2 receptor in Sprague-Dawley rat striatum incubated for 30 mins by liquid scintillation counting analysis.
Series [3] concerns the target 5-hydroxytryptamine receptor 2A (Rattus norvegicus, UniProt P14842). Briefly: Displacement of [3H] ketanserin from 5-HT2A receptor in Sprague-Dawley rat cerebral cortex incubated for 30 mins by liquid scintillation counting analysis.
Series [4] concerns the target T1, 5-hydroxytryptamine receptor 1A (Rattus norvegicus, UniProt P19327).
T1 sequence (P19327 whole entry): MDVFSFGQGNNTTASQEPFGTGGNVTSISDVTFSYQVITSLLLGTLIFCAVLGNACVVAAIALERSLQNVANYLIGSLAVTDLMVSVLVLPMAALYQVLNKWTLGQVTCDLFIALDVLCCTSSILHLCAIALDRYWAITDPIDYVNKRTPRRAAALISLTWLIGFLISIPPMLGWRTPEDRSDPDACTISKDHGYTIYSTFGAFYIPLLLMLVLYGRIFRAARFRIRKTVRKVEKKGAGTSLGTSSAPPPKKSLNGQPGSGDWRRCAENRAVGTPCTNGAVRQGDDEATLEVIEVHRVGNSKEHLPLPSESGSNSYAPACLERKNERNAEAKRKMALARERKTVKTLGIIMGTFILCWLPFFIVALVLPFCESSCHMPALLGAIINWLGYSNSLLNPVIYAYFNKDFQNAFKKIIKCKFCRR
The experiment in a line: Displacement of [3H]8-OH-DPAT from 5-HT1A receptor in Sprague-Dawley rat cerebral cortex incubated for 30 mins by liquid scintillation counting analysis.

Series [5] has as its target T2, Adrenergic receptor alpha-1 (Rattus norvegicus, UniProt P15823+P23944+P43140).
T2 sequence (P15823 whole entry): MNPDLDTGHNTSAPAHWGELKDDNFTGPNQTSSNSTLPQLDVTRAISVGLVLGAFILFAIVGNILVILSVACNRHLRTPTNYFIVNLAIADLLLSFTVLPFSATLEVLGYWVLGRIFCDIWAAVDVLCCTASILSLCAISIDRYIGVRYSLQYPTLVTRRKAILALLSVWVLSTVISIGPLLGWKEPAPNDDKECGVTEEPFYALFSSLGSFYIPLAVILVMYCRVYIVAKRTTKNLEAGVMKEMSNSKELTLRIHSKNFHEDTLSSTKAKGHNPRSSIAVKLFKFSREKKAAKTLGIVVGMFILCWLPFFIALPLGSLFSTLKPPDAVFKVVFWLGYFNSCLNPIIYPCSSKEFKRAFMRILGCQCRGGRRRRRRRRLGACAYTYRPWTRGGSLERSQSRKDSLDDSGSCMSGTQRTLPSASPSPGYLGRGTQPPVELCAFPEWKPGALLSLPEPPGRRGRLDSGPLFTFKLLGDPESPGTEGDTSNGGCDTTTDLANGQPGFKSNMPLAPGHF
T2 sequence (P23944 whole entry): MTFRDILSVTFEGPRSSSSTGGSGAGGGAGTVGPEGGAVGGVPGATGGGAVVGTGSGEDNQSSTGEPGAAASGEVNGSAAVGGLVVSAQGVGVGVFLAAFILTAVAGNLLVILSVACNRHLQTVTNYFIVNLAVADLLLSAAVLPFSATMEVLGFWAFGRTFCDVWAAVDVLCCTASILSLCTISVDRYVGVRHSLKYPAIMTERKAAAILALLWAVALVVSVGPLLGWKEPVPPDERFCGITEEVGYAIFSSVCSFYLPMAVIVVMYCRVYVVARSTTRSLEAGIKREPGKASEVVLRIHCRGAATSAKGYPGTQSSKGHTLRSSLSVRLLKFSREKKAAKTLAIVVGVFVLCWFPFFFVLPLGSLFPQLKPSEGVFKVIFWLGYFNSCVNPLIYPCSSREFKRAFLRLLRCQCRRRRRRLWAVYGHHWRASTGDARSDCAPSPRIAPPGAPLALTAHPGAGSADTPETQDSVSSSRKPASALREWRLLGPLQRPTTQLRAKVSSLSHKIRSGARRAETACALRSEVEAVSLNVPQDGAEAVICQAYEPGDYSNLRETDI
T2 sequence (P43140 whole entry): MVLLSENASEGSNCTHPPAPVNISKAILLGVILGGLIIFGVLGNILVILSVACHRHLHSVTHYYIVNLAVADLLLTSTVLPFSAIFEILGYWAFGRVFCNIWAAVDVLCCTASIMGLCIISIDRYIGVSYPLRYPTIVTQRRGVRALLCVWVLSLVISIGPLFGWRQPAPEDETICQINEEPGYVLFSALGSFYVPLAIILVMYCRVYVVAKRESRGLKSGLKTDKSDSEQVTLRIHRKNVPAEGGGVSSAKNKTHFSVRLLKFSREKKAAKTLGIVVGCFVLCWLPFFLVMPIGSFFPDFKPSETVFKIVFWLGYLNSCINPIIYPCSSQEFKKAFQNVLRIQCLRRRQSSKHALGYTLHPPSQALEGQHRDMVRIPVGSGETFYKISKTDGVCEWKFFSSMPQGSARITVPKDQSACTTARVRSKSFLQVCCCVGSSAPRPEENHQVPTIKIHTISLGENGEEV
The experiment in a line: Displacement of [3H]prazosin from adrenergic alpha1 receptor in Sprague-Dawley rat cerebral cortex incubated for 60 mins by liquid scintillation counting analysis.

The target in series [6] is 5-hydroxytryptamine receptor 6 (Homo sapiens, UniProt P50406). Briefly: Displacement of [3H]lysergic acid diethylamide from human recombinant 5-HT6 receptor expressed in CHO cell membranes for 30 mins by liquid scintillation counting analysis.
For series [7], the target named is T3, 5-hydroxytryptamine receptor 2C (Rattus norvegicus, UniProt P08909).
T3 sequence (P08909 whole entry): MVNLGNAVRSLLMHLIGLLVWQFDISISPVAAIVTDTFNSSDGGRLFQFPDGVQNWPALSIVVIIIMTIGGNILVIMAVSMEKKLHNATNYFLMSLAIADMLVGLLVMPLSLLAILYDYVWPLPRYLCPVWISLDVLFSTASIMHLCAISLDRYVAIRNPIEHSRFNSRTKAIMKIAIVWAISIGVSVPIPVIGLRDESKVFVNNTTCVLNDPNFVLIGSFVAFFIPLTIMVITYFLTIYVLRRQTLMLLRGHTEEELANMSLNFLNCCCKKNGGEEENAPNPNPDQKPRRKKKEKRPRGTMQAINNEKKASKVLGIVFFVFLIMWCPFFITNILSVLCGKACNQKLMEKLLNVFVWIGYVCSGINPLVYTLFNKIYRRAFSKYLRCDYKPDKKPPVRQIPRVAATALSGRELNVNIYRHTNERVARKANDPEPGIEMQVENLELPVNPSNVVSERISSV
Briefly: Displacement of [3H]mesulergine from 5-HT2C receptor in Sprague-Dawley rat cerebral cortex incubated for 15 mins in presence of spiperone by liquid scintillation counting analysis.

Series [8] has as its system Mus musculus. Briefly: Inhibition of MK-801 induced hyperactivity in po dosed Chinese Kun Ming mouse administered for 60 mins followed by MK-801 challenge and measured for 90 mins. Format: functional.
The nature of series [9]: Therapeutic index, ratio of ED50 for induction of catalepsy in po dosed Chinese Kun Ming mouse to ED50 for inhibition of MK-801 induced hyperactivity in po dosed Chinese Kun Ming mouse. Format: organism-based. The conditions noted are these: in vivo, read-out: Ratio ED50.
The nature of series [10]: Therapeutic index, ratio of ED50 for induction of catalepsy in po dosed Chinese Kun Ming mouse to ED50 for inhibition of apomorphine-induced climbing behavior in po dosed Chinese Kun Ming mouse. The conditions noted are these: in vivo, read-out: Ratio ED50. Format: organism-based.
Series [11] relates to Mus musculus. The experiment in a line: Inhibition of apomorphine-induced climbing behavior in po dosed Chinese Kun Ming mouse administered for 30 mins followed by apomorphine challenge and measured for 10 to 30 mins. The series is classed as functional.
A short description of series [12]: Induction of catalepsy in po dosed Chinese Kun Ming mouse assessed as increase in unwanted extrapyramidal motor disturbances measured for 60 seconds. To be noted: in vivo, 1 min. The series is classed as organism-based.
A short description of series [13]: Toxicity in po dosed Chinese Kun Ming mouse assessed as lethality after 24 hrs. The series is classed as organism-based. The conditions noted are these: in vivo.

Sequence of Histamine H1 receptor (P31389 whole entry): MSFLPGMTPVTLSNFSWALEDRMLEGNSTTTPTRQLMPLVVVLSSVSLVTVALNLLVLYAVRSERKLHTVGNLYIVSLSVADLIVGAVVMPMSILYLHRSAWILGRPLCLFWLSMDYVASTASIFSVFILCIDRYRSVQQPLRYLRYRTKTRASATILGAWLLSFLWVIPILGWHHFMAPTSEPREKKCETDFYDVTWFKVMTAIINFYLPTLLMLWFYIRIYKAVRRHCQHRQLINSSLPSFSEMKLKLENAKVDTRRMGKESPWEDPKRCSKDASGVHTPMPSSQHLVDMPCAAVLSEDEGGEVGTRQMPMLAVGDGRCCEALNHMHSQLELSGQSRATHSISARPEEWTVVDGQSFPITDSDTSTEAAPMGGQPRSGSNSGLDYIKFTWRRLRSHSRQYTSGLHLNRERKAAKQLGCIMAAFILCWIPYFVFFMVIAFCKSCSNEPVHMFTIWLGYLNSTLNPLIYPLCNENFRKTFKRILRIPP
Sequence of D(2) dopamine receptor (P61169 whole entry): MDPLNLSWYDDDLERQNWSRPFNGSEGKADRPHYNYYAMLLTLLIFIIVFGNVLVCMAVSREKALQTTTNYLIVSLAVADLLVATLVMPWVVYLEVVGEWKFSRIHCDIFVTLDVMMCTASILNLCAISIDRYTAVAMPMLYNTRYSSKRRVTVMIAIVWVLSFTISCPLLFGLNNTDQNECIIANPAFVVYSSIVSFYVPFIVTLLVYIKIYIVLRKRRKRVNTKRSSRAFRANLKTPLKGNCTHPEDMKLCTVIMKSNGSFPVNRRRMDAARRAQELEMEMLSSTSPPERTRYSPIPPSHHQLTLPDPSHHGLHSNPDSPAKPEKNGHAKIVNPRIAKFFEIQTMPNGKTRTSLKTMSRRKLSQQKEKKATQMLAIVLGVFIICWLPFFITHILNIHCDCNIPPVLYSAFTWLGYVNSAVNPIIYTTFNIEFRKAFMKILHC
Sequence of 5-hydroxytryptamine receptor 6 (P50406 whole entry): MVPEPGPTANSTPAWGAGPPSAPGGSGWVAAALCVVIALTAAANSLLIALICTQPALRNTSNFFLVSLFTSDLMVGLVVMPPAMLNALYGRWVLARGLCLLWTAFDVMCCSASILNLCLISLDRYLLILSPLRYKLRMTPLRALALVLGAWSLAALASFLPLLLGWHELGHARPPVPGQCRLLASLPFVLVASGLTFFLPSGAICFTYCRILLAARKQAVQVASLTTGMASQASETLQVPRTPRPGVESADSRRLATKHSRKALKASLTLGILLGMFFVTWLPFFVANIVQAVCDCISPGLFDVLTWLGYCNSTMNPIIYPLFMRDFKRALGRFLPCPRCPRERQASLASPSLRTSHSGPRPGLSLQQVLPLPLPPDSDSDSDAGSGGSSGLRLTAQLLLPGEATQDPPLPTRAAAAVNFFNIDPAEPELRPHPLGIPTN
Sequence of 5-hydroxytryptamine receptor 2A (P14842 whole entry): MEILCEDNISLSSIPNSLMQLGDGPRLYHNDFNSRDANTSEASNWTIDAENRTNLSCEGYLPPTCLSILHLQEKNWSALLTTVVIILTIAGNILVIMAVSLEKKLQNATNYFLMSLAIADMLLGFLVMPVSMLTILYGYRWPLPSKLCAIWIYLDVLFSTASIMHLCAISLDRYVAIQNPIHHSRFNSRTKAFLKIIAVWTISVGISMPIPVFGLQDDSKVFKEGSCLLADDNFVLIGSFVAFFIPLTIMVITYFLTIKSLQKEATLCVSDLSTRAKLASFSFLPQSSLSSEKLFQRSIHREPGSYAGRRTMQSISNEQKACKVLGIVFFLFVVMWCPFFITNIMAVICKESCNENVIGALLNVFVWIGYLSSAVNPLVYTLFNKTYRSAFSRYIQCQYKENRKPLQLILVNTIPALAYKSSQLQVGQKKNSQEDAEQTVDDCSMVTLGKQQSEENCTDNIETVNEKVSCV

In general, Ki refers to the equilibrium dissociation constant of an inhibitor or competing ligand from its target. In the case of `O=c1ccc(OCCCN2CCC(c3noc4cc(F)ccc34)CC2)nn1-c1cc(F)ccc1F`, the Ki was 115 nM in series [1]; 6.1 nM in series [2]; 11.2 nM in series [3]; 9 nM in series [4]; 337 nM in series [5]; 3.8 nM in series [6]. Also, the Ki in series [7] came to 9.1 nM.
Consider `O=c1ccc(OCCCN2CCC(c3noc4cc(F)ccc34)CC2)nn1-c1cc(Cl)ccc1Cl`, for which the Ki is 186 nM in series [1]; 2.7 nM in series [2]; 0.7 nM in [3]; 147 nM in series [5]; 11.7 nM in [6]; 1 nM in [7].
For orientation: ED50 means the dose that gives a 50% effect, or the effect in half of the subjects. Take `O=C(CCCN1CCC(O)(c2ccc(Cl)cc2)CC1)c1ccc(F)cc1` [HALOPERIDOL]: the ED50 in series [8] is 0.19 mg/kg; in series [11] it was 0.18 mg/kg; in series [12], 0.56 mg/kg. Further, the selectivity ratio is 2.95 in series [9] and 3.11 in [10].
As for `Cc1nc2n(c(=O)c1CCN1CCC(c3noc4cc(F)ccc34)CC1)CCCC2` [RISPERIDONE], the ED50 in series [8] was found to be 0.018 mg/kg; in series [11], 0.02 mg/kg; in [12] it was 0.38 mg/kg.
As to `O=c1ccc(OCCCN2CCC(c3noc4cc(F)ccc34)CC2)nn1-c1cccc(Cl)c1Cl`, the Ki in series [1] amounted to 16.6 nM; in series [2] it was 0.2 nM; in series [3], 0.5 nM; in series [4] it was 9.3 nM; in series [5], 118 nM; in [6] it was 113 nM. In [7], the inhibition constant Ki came out at 177 nM.
By LD50 is commonly meant the dose at which mortality reaches 50%. In the case of `O=c1ccc(OCCCN2CCC(c3noc4cc(F)ccc34)CC2)nn1-c1c(F)cccc1F`, the Ki came to 2000 nM in series [1]; 0.5 nM in [2]; 0.3 nM in series [3]; 5.9 nM in series [4]; 1098 nM in series [5]; 0.5 nM in series [6]. In addition, the Ki in series [7] was 1580 nM. Also, the results for the ED50 in series [8], in series [11] and in series [12] were 0.3 mg/kg, 0.47 mg/kg and 23.82 mg/kg, respectively. Moreover, the selectivity ratio in [9] is 79.4; in series [10] it was 50.7. In addition, the LD50 at 24 h in series [13] is more than 2000 mg/kg.
